From US8192962B2, “Processes for detecting toxic substances” (Daikin Industries, Ltd., priority 2001, dated 2012)

Tested on: Genes belonging to other category
Experiment: DNA chip mRNA expression in yeast, genes belonging to other category (Table 9)
Format: cell-based, Saccharomyces cerevisiae S288C
Protocol: Yeast (Saccharomyces cerevisiae S288C (α SUC2mal mel gap2 CUP1)) were incubated at 25° C. on YPD medium (yeast extract 1%, polypepton 2%, glucose 2%). One of toxic chemical substances was added to the cells at logarithmic growth phase, and the cells were further incubated for two hours. Cells were cultured without any chemical substance in the same condition, and were used as control. Concentrations of the chemical substances were defined to inhibit the growth of the yeast but not lead to death.
After completion of the incubation, the culture was centrifuged to collect the cells. To the cells, sodium acetate buffer (50 mM sodium acetate, 10 mM EDTA, 1% SDS) was added, and the mixture was shaken at 65° C. for five minutes, followed by returning to room temperature, and obtaining the supernatant, of which the procedures were repeated two times. To the supernatant, ½ amount of a solution of phenol/chloroform was added, and the mixture was centrifuged to give a supernatant, which was added with an equal amount of chloroform, and the mixture was centrifuged to give a supernatant. To the supernatant, an equal amount of isopropanol containing 0.3 M sodium acetate was added, and the mixture was allowed to stand at room temperature for 30 minutes, after which the mixture was centrifuged to give a sediment of the whole RNAs. Seventy % ethanol was added to the sediment, and the mixture was again centrifuged to give a sediment, which was then dried and dissolved in water. mRNA was isolated from the whole RNAs as followings. In view of the fact that a poly A chain is attached to the 3′ terminus of mRNA, a polynucleotide having a poly T structure which was immobilized on the surface of latex beads was used to trap the mRNA, and then the mRNA was washed and eluted with spine column (Oligotex-dT30<Super>mRNA Purification Kit, Takara). Reverse transcription of the mRNA was conducted with a reverse transcriptase (Super Script II Reverse Transcriptase; catalogue No. 18064-014, GibcoBRL) using fluorescence-labeled nucleotides to give cDNAs that were introduced with Cy3-dUTP or Cy5-dUTP during the reverse transcription.
The labeled cDNAs were dissolved in TE buffer (10mM Tris-HCl/1 mM EDTA, pH8.0), and the solution was dropped on the DNA chip containing the whole genes of yeast (DNA Chip Research Inc. Japan) so that the cDNAs were hybridized on the DNA chip at 65° C. for over 12 hours. The fluoresces intensity of the DNA chip was read with a scanner, and the ratio relative to the fluorescence intensity resulting from the absence of chemical substance was estimated as the following, which is shown in Tables 1 to 9: […]

Measured: The level of expressed mRNA in the presence of chemical substance/The level of expressed mRNA in the absence of chemical substance

S=C([S-])NCCNC(=S)[S-].[Zn+2] [(11), zinc N,N′-ethylenebis(dithiocarbamate)]
1.6: yeast gene YBL041W | yeast gene YCL067C | yeast gene YDR388W | yeast gene YDR510W | yeast gene YEL042W | yeast gene YGR213C
1.1: yeast gene YCR071C | yeast gene YDL238C | yeast gene YDR315C | yeast gene YFL043C | yeast gene YGL229C | yeast gene YHR142W
0.9: yeast gene YAR010C | yeast gene YBR031W | yeast gene YCL027W | yeast gene YDL008W | yeast gene YDR188W | yeast gene YDR264C | yeast gene YER130C | yeast gene YHR205W | yeast gene YIL140W
1.8: yeast gene YHR071W
0.2: yeast gene YGL158W
1.7: yeast gene YDR085C | yeast gene YFL038C
2.4: yeast gene YGR253C
1.4: yeast gene YCR096C | yeast gene YDL061C | yeast gene YDR276C | yeast gene YER009W | yeast gene YFR050C | yeast gene YGR239C | yeast gene YHR195W
1.9: yeast gene YCR004C | yeast gene YEL066W | yeast gene YER177W
1.5: yeast gene YBL043W | yeast gene YGR189C
1.2: yeast gene YBL101W-A | yeast gene YBL102W | yeast gene YBR290W | yeast gene YCR039C | yeast gene YCR062W | yeast gene YCR067C | yeast gene YCR106W | yeast gene YDR080W | yeast gene YDR115W | yeast gene YDR259C | yeast gene YDR304C | yeast gene YDR382W | yeast gene YDR407C | yeast gene YDR427W | yeast gene YDR481C | yeast gene YER025W | yeast gene YER039C | yeast gene YFL022C | yeast gene YFR006W | yeast gene YGR257C | yeast gene YIL018W | yeast gene YIL123W | yeast gene YJL113W | yeast gene YJL138C
0.7: yeast gene YBR239C | yeast gene YDR084C | yeast gene YER076C | yeast gene YER107C | yeast gene YGL207W | yeast gene YHR185C
4.6: yeast gene YBL078C
1.3: yeast gene YBR128C | yeast gene YCL020W | yeast gene YCR069W | yeast gene YDL143W | yeast gene YDR257C | yeast gene YER078C | yeast gene YFL028C | yeast gene YFR051C | yeast gene YGR136W | yeast gene YGR232W
0.8: yeast gene YBL005W-A | yeast gene YBL101C | yeast gene YBR009C | yeast gene YDR181C | yeast gene YDR378C | yeast gene YHR004C
2.2: yeast gene YDR055W
3.2: yeast gene YBR214W
0.6: yeast gene YBR177C | yeast gene YDR432W | yeast gene YGL094C | yeast gene YHR166C | yeast gene YJL089W
0.5: yeast gene YJL073W
3.5: yeast gene YHR139C
1.0: yeast gene YCR088W | yeast gene YDR104C | yeast gene YDR358W
0.4: yeast gene YDR488C | yeast gene YGL150C
2.9: yeast gene YJL116C
